From publication PMC7366380, “Discovery of a Potent and Selective Covalent Inhibitor and Activity-Based Probe for the Deubiquitylating Enzyme UCHL1, with Antifibrotic Activity” (Journal of the American Chemical Society, 2020)
“Also recorded” adds a separate entry of the source.

How the values were obtained:
USP16 = USP16 (Homo sapiens, UniProt Q9Y5T5); assay: biochemical
UCHL1 [1] = target: T1, UCHL1 (Homo sapiens, UniProt P09936); assay: Reversible inhibition (jump dilution) assay with Ub-AMC; format: biochemical; set-up: rapidly targets endogenous UCHL1 in cells; endogenous in cells; host or cells: HEK293; settings: UCHL1 300 nM, compound 400 nM, 30 min, 100x dilution
T1 sequence (P09936 1-223): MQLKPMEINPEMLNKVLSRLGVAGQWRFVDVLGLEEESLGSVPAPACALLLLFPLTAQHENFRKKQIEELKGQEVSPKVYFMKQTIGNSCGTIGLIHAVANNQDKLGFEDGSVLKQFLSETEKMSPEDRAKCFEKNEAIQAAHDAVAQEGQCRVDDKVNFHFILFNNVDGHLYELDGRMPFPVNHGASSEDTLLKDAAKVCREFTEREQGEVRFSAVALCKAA
Experimental: Figure S2. UCHL1 kinetics
(a) Kinetic analysis of UCHL1 (3 nM)-catalyzed cleavage of varied concentrations of Ub-AMC.
(b) Non-linear fit of Michaelis –Menten equation to initial reaction velocities versus Ub-AMC […]
(c) Apparent rate of inhibition (ka) of compound 1 and 2 at varying concentrations. Ub-AMC (130 nM) fluorescence intensity was measured in the presence of UCHL1 (3 nM). The apparent rate constant for inhibition, ka/I was determined by linear regression, giving the absolute value of the rate constant kobs/I values for […]
13000) M-1s-1, respectively. […]
intensity read immediately for 1 h. […]
The excess ligand was removed by washing with buffer D in an Amicon® Ultra MWCO 10 kDa centrifugation spin filter three times. The protein-adducts were desalted using 3× SDB-XC polystyrene-divinylbenzene copolymer extraction disks, following published methods.5 Samples were eluted with 50% (v/v) MeCN 0.5% (v/v) formic acid in LC-MS grade water and analyzed by LC-ESI (ACQUITY UPLC H-Class PLUS instrument (Waters)) using an ACQUITY UPLC BEH C4 column (Waters) coupled with Waters LCT Premier MS detector. […]
(§1) The MS data was analyzed by PEAKS Studio 8.5 (Bioinformatics Solutions Inc.). […]
(§2) Homogeneous time resolved fluorescence (HTRF) assay […]
(§3) BME) and incubated for 30 min at room temperature. […] The plates were sealed and incubated overnight at 4 °C then read using a PHERAstar (BMG), and the Delta F calculated: […]

UCHL1 [2] = target: T1, UCHL1; assay: UCHL1 covalent adduct determination by LC-ESI-MS; format: binding; set-up: (residues 1-223, Uniprot P09936); GST (N, cleaved yes); made in house; host or cells: E. coli Rosetta 2(DE3), pGEX-6P-1; settings: UCHL1 5 μM, compound 13 μM, 60 min
Experimental: (§4) values were plotted against compound concentration to afford the apparent second order rate constant for inhibition, ka/I. The absolute value of the second order rate constant kobs/I was […]
(§5) Reversible inhibition assay: Jump dilution assays were performed by incubating UCHL1 […]
(§6) negative controls (iodoacetamide (IAA) 10 mM) for 30 min at room temperature. The reaction […]
(§7) intensity read immediately for 1 h.
(§8) UCHL1 covalent adduct determination […]
(§9) pH 7.5) was incubated with compound 1, 2 (2.5 equiv.) or DMSO for 1 h at room temperature.
(§10) The excess ligand was removed by washing with buffer D in an Amicon® Ultra MWCO 10 kDa centrifugation spin filter three times. The protein-adducts were desalted using 3× SDB-XC polystyrene-divinylbenzene copolymer extraction disks, following published methods.5 Samples were eluted with 50% (v/v) MeCN 0.5% (v/v) formic acid in LC-MS grade water and analyzed by LC-ESI (ACQUITY UPLC H-Class PLUS instrument (Waters)) using an ACQUITY UPLC BEH C4 column (Waters) coupled with Waters LCT Premier MS detector.
UCHL1 covalent adduct site identification […]
as §1, §2, §3

UCHL1 [3] = target: T1, UCHL1; assay: UCHL1 covalent adduct site identification (tryptic digest, nanoLC-MS/MS, PEAKS); format: binding; set-up: (residues 1-223, Uniprot P09936); GST (N, cleaved yes); made in house; host or cells: E. coli Rosetta 2(DE3), pGEX-6P-1; settings: for site of UCHL1 modification: UCHL1 5 μM, compound 13 μM, 1 h, tryptic digest
Experimental: b) 2 modification: 96% peptide sequence coverage
Figure S9. Identification of modification sites by nanoLC-MS/MS.
Recombinant UCHL1 (5 µM) was incubated with compound 1 or 2 (13 µM) for 1 h at room temperature. The labeled protein was digested with trypsin and analyzed by nanoLC-MS/MS.
The data was processed in PEAKS 8.0. 82% and 96% of UCHL1 peptide sequence coverage for (a) 1, or (b) 2 modification, respectively. The high confidence modification of compound 1 […]
Statistical data and peptide lists from PEAKS are detailed in Supplementary Data S1. […]
as §4, §5, §6, §7, §8, §9, §10
UCHL1 covalent adduct site identification
Compound-protein adduct samples were prepared as described above and digested with trypsin (Promega, 1:50 trypsin:UCHL1 ratio) at 37 °C, overnight. […]
as §1, §2, §3

Chain of USP16 (Q9Y5T5 whole entry, species assumed): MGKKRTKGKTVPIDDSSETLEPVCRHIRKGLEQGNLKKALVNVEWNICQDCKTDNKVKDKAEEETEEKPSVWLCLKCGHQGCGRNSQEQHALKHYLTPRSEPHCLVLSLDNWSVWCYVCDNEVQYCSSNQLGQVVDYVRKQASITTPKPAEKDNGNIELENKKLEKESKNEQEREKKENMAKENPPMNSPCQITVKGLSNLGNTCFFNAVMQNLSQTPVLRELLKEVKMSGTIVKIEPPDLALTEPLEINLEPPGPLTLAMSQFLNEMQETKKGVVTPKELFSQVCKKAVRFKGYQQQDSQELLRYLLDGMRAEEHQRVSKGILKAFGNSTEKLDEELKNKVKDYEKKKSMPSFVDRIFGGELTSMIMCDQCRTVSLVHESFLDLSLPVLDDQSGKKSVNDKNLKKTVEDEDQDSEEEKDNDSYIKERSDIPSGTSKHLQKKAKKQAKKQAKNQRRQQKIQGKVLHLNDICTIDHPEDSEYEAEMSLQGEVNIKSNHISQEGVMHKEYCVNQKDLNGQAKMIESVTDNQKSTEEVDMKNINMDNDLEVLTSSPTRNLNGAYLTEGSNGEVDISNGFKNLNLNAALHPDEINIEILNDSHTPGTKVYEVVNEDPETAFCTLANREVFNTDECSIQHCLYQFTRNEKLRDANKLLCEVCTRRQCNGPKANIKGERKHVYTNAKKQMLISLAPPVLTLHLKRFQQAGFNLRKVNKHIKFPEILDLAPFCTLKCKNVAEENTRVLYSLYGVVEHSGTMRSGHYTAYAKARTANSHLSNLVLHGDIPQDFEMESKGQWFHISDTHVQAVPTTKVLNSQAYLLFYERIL

| SMILES | IC50 (USP16) [µM] | reversibility of inhibition after dilution (UCHL1 [1]) | covalent modification of UCHL1 by LC-ESI-MS (UCHL1 [2]) | site of UCHL1 modification (UCHL1 [3]) | Peptide carrying the compound 2 modification (C, +381.16) (UCHL1 [3]; recombinant UCHL1 (P09936) treated with compound 2, tryptic digest, PEAKS, PTM code n = Compound 2 modification (C)) |
| --- | --- | --- | --- | --- | --- |
| N#CN1CCC[C@H]1C(=O)N1CCc2c(-c3c[nH]c4ncccc34)cccc21 [Compound 1] | > 10 | slowly reversible | single modification | catalytic cysteine 90; also recorded: catalytic cysteine (Cys90) |  |
| C#Cc1cnc2[nH]cc(-c3cccc4c3CCN4C(=O)[C@@H]3CCCN3C#N)c2c1 [Compound 2] |  | slowly reversible | single modification | catalytic cysteine 90; also recorded: catalytic cysteine (Cys90) | QTIGNSC(+381.16)GTIGLIHAVANNQDKLGFEDGSVLK; also recorded: QTIGNSC(+381.16)GTIGLIHAVANNQDK; also recorded: QTIGNSC(+381.16)GTIGLIHAVANNQDKLGFEDGSVLKQFLSETEK |
| CC(=O)O/N=C1\C(=O)N(Cc2cc(Cl)ccc2Cl)c2ccc(Cl)cc21 [LDN-57444, reference compound] | > 10 |  |  |  |  |
